The source made the active and inactive calls. No cut-off for these calls is given here.
Key:
[1] = target: Beta-secretase 1 (Homo sapiens, UniProt P56817); assay: Inhibition of BACE1-mediated cleavage of amyloid precursor protein after 16 hrs by spectrophotometry
[2] = Inhibition of chymotrypsin in absence of Triton X-100
[3] = Inhibition of chymotrypsin in presence of 0.01% Triton X-100

Chain of Beta-secretase 1 (P56817 whole entry): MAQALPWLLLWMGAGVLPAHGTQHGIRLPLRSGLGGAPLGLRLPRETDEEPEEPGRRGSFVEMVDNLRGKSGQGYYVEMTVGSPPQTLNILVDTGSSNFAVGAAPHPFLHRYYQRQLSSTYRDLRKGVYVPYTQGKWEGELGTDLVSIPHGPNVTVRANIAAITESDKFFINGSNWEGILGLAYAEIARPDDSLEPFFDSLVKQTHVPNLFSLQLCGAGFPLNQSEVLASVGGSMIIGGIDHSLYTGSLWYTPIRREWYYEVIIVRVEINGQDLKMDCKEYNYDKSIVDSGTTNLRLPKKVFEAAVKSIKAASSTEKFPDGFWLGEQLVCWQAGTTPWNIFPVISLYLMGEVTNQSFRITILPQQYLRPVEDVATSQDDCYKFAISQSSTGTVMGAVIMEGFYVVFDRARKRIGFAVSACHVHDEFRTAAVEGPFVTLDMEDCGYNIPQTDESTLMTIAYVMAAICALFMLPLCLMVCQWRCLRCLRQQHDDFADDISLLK

inhibition [1] | IC50 [1] [µM] | IC50 [2] [µM] | IC50 [3] [µM] | Compound
inactive | – | – | – | CC(C)C(/C=C/[C@@H](C)[C@H]1CC[C@H]2[C@@H]3CC=C4C[C@@H](O)CC[C@]4(C)[C@H]3CC[C@]12C)C(C)C
inactive | – | – | – | CC(C)C(/C=C/[C@@H](C)[C@H]1CC[C@H]2[C@@H]3C[C@H](O)[C@H]4C[C@H](O)[C@@H](O)C[C@]4(C)[C@H]3CC[C@]12C)C(C)C

Second part, the compound before the results:

Compound | inhibition [1] | IC50 [1] [µM] | IC50 [2] [µM] | IC50 [3] [µM]
C=C(C)C(/C=C\[C@@H](C)[C@H]1CC[C@H]2[C@@H]3C[C@H](O)[C@H]4C[C@H](O)[C@@H](O)C[C@]4(C)[C@H]3CC[C@]12C)C(C)C (stereo partly drawn) | inactive | – | – | –
CC(C)C(/C=C\[C@@H](C)[C@H]1CC[C@H]2[C@@H]3C[C@H](O)[C@H]4C[C@H](O)[C@@H](O)C[C@]4(C)[C@H]3CC[C@]12C)C(C)C | inactive | – | – | –
CC(C)C(/C=C\[C@@H](C)[C@H]1CC[C@H]2[C@@H]3C[C@H](OS(=O)(=O)O)[C@H]4C[C@H](OS(=O)(=O)O)[C@@H](OS(=O)(=O)O)C[C@]4(C)[C@H]3CC[C@]12C)C(C)C [TOPSENTINOL K TRISULFATE] | Dose-dependent effect | 1.2 | 2.7 | 34.6

— ChEMBL document CHEMBL1221403, “Topsentinols, 24-isopropyl steroids from the marine sponge Topsentia sp” (J Nat Prod, 2010)
